Experimental data from US11426389B2, “Compositions and methods for promoting hematopoietic stem cell regeneration” (priority 2017, dated 2022).

Legend:
ShCamkk2 M1 cells = format: cell-based
Description: FIG. 6A-6F. CaMKK2 couples radiation signaling with the AMPK anti-proliferative pathway. HSPC (KL+KSL) were isolated from WT and Camkk2 null (KO) mice and irradiated in vitro with 400 cGy or left non-irradiated. Cells were then cultured for 1-h in regular medium. Protein expression was normalized by actin and expressed as fold change over basal (non-irradiated WT HSPC), and is reported on the top of each lane. (A) Immunoblots of CaMKK2, phospho-CaMK1 (pCaMK1) and actin. (B) Immunoblots of Tp53, phosphorylated AMPK and S6rp (pAMPK and pS6rp, respectively). (C-E) M1 myeloid progenitor cells were transduced with lentiviral vectors expressing a short hairpin sequence for silencing Camkk2 or a control sequence (ShCamkk2 and Ctrl, respectively). Ctrl and ShCamkk2 M1 cells were then irradiated or left non-irradiated. One-hour after irradiation, M1 cell protein expression was assessed by immunoblotting. (C) Expression of CaMKK2 and actin. […] Cell number was determined using a colorimetric assay, and the results are expressed as fold change of non-irradiated cells cultured in the absence of AICAR. […]
To determine the functional effects of Camkk2 deficiency in M1 cells, control and ShCamkk2 M1 cells were exposed to 300 cGy with or without a cell permeable AMPK agonist and the number of live M1 cells were determined 24 h after irradiation.

[1] = system: 900 cGy TBI wild-type mice; assay: Survival of lethally irradiated (900 cGy TBI, LD100/15) wild-type mice treated with STO-609; format: in vivo; conditions: 10 μM/kg on days 1, 2 and 3 post-TBI, intravenous, vs vehicle, n=10 per group
Description: (§1) FIGS. 7A-7D. Pharmacologic inhibition of CaMKK2 enhances hematopoietic regeneration in vivo. Treatment with STO-609, a CaMKK2 inhibitor, mitigates the acute hematopoietic radiation syndrome. (A) Scheme of irradiation and STO-609 treatment in wild type mice. (B) Survival of 900 cGy TBI wild-type mice treated with vehicle or STO-609 (n=10 per group). Wild-type mice were irradiated with 500 cGy TBI and were then treated with STO-609 or vehicle after 24 h. Nine days after TBI, the mice were killed and bones were removed. The BM cells were counted and stained to identify HSPC (BMC). (C) Representative staining and gating strategy. (D) Absolute number of BMC and HSPC (upper and lower graph, respectively). The results are expressed as the fold changes over the absolute number of cells recovered form vehicle-treated wild type mice, and are normalized for one femur. Two independent experiments have been combined (total number of mice-9 per group). Bars graph reports mean±S.E.M. *P-value<0.05, **P-value<0.01/
(§2) CaMKK2-EGFP transgenic reporter mice were used. Radiation was delivered by a Shepherd Cs^137γ-irradiator at a dose rate of approximately 600 cGy per min. […]
(§3) It was hypothesized that pharmacologic inhibition of CaMKK2 increases survival and HSPC recovery following TBI. […] Next, the effects of STO-609 treatment on HSPC of mice receiving 500 cGy TBI were evaluated. […]

HSPC = assay: Bone marrow cell and HSPC recovery in 500 cGy TBI wild-type mice treated with STO-609; format: in vivo; conditions: 9 days after TBI, vs vehicle-treated mice
Description: as §1, §2, §3

Row | Structure (SMILES) | cell death (ShCamkk2 M1 cells; M1 cells, following radiation or AICAR treatment (data not shown)) | number of live M1 cells (proliferation) after irradiation (ShCamkk2 M1 cells; ShCamkk2 M1 cells, 300 cGy, 24 h, AICAR 100 μM) | survival following TBI [1] | HSPC in the BM (HSPC) | total BM cells in the BM (HSPC)
1 | NC(=O)c1ncn([C@@H]2O[C@H](CO)[C@@H](O)[C@H]2O)c1N [AICAR, 5-aminoimidazole-4-carboxamide 1-β-d-ribofuranoside] | no increase in cell death | reverted the refractory phenotype of ShCamkk2 M1 cells |  |  | 
2 | O=C(O)c1ccc2c3c1cccc3c(=O)n1c3ccccc3nc21 [STO-609, 7H-benzimidazo(2,1-a)benz(de)isoquinoline-7-one-3-carboxylic acid] |  |  | significantly prolonged survival | More | More total BM cells
